From patent US20240189344A1, “METHODS USING CARBON DIOXIDE AND OXYGEN TO IMPROVE CHARACTERISTICS OF POULTRY” (priority 2022, published 2024)

Columns and labels:
[1] = system: Ross 708 chickens; assay: Livability: percentage of hatched birds surviving to 28 days after CO2 incubation; assay type: in vivo, chicken; conditions: for percentage of birds that survived compared to control: 28 days
Method: 900 fertilized eggs from a commonly used commercial chicken strain, Ross 708, that were less than 1 week old since being laid, and laid in the same laying facility by layers (chickens) of the same age, were split equally into three batches of 300 each. One batch, referred to as control batch, was incubated for 18 days in an atmosphere in which no additional CO2 was injected into this atmosphere from any source outside the egg. For this batch, the CO2 concentration inside the incubator varied between the CO2 concentration of the ambient atmosphere (i.e. about 409 ppm) and as high as 1,500 ppm (resulting from CO2 generation by the eggs themselves). The second batch, referred to as 4,000 ppm test CO2 batch or 0.4% CO2 test batch, was incubated for 18 days wherein the CO2 concentration in the incubator from the start of the first day through the end of the eighteenth day was maintained at 4,000 ppm (i.e. 0.4% CO2) by occasional injections of CO2 as necessary. The third batch, referred to as 10,000 ppm test CO2 batch or 1% CO2 test batch, was incubated for 18 days according to Regimen 1 described herein, wherein the CO2 concentration in the incubator from the start of the first day through the end of the eighteenth day was maintained at 10,000 ppm (i.e. 1% CO2) by occasional injections of CO2 as necessary. All three batches were incubated at approximately 100° F. and between 30% and 70% relative humidity. At the end of the eighteenth day of incubation, all three batches of eggs were transferred to hatcher equipment, where the eggs hatched over the next 3 days. […]
Once the chicks hatched, approximately 150 of the male chicks from each batch were taken to grow cages and they began to be fed water and feed. […] Then the birds were measured for Woody Breast scores by manual palpitation by a trained panel of experts under single-blinded conditions. […] Score 0 means no WB was detected. Score 3 meant very high levels of WB detected and scores 1 and 2 meant intermediate levels of WB were detected. […]

[2] = system: Ross 708 chickens (Woody Breast); assay: Woody Breast scores by manual palpation in chickens hatched from eggs incubated under controlled CO2; assay type: in vivo, chicken
Method: (§1) 900 fertilized eggs from a commonly used commercial chicken strain, Ross 708, that were less than 1 week old since being laid, and laid in the same laying facility by layers (chickens) of the same age, were split equally into three batches of 300 each. One batch, referred to as control batch, was incubated for 18 days in an atmosphere in which no additional CO2 was injected into this atmosphere from any source outside the egg. For this batch, the CO2 concentration inside the incubator varied between the CO2 concentration of the ambient atmosphere (i.e. about 409 ppm) and as high as 1,500 ppm (resulting from CO2 generation by the eggs themselves). The second batch, referred to as 4,000 ppm test CO2 batch or 0.4% CO2 test batch, was incubated for 18 days wherein the CO2 concentration in the incubator from the start of the first day through the end of the eighteenth day was maintained at 4,000 ppm (i.e. 0.4% CO2) by occasional injections of CO2 as necessary. The third batch, referred to as 10,000 ppm test CO2 batch or 1% CO2 test batch, was incubated for 18 days according to Regimen 1 described herein, wherein the CO2 concentration in the incubator from the start of the first day through the end of the eighteenth day was maintained at 10,000 ppm (i.e. 1% CO2) by occasional injections of CO2 as necessary. All three batches were incubated at approximately 100° F. and between 30% and 70% relative humidity. At the end of the eighteenth day of incubation, all three batches of eggs were transferred to hatcher equipment, where the eggs hatched over the next 3 days. No external CO2 was injected into the hatcher from any source outside the eggs for this period of 3 days. Thus, the only difference between the conditions under which the three batches were incubated was that in the control batch no additional CO2 was injected, whereas for the other two batches additional, external CO2 was injected to subject the eggs to CO2 concentrations of 4,000 ppm and 10,000 ppm respectively. During the incubation period the oxygen concentration in the control incubator was always above 20%, whereas in the 4,000 ppm and 10,000 ppm CO2 controlled incubators, the oxygen level was typically above 19%.
(§2) Once the chicks hatched, approximately 150 of the male chicks from each batch were taken to grow cages and they began to be fed water and feed. From this point onwards, there was no difference in the treatment of the birds. 28 days after hatching the chickens from each batch were weighed and then stunned. Then the birds were measured for Woody Breast scores by manual palpitation by a trained panel of experts under single-blinded conditions. Each breast was given a score of either 0, 1, 2 or 3. Score 0 means no WB was detected. Score 3 meant very high levels of WB detected and scores 1 and 2 meant intermediate levels of WB were detected.
(§3) 600 fertilized eggs from a commonly used commercial chicken strain, Ross 708, that were less than 1 week old since being laid, and laid in the same laying facility by layers (chickens) of the same age, were split equally into batches of 300 each. One batch, referred to as control batch, was incubated for 18 days in an atmosphere in which no additional CO2 was injected into this atmosphere from any source outside the egg. For this batch, the CO2 concentration inside the incubator varied between ambient atmospheric (i.e. about 409 ppm) and as high as 1,500 ppm (resulting from CO2 generation by the egg). […]

[3] = Average bird weight at hatch and at 28 days after CO2 incubation; assay type: in vivo, chicken
Method: as §1, §2, §3

[4] = system: fertilized Ross 708 chicken eggs; assay: Percent of fertile eggs hatched at end of 21 days of incubation under controlled CO2; assay type: in vivo
Method: as §1
as §3, with “egg.” for “egg. For this batch, the CO2 concentration inside the incubator varied between ambient atmospheric (i.e. about 409 ppm) and as high as 1,500 ppm (resulting from CO2 generation by the egg).”

[5] = Regimen 1, constant 1% CO2 for 18 days

O=C=O [CO2, carbon dioxide]
more hatched birds surviving to end of 28 days compared to control [1, 5]: Approximately 4% | percentage of birds that survived compared to control ([1]; Regimen 2, 1% CO2 ramp up): no statistical difference | percentage of birds that survived compared to control ([1]; Regimen 3, 0.75% CO2 on-off): no statistical difference | % of birds scoring 1 (Woody Breast score) ([2]; Regimen 1, constant 10,000 ppm (1%) CO2 for 18 days, 28 days after hatching, control 24%): 15% | incidence of WB compared to control birds ([2]; Regimen 1, constant 10,000 ppm (1%) CO2 in incubator for 18 days, scored 28 days after hatching): significantly reduced | % of birds scoring 1 (Woody Breast score) ([2]; Regimen 2, 1% CO2 ramp up, 28 days after hatching, control 13%): 8% | incidence of WB compared to control birds ([2]; Regimen 2, CO2 ramp up in equal daily steps to 10,000 ppm (1%) on day 18, 28 days after hatching): significantly reduced | % of birds scoring 2 (Woody Breast score) ([2]; Regimen 3, 0.75% CO2 on-off, 28 days after hatching, control 5%): 1% | % of birds scoring 1 (Woody Breast score) ([2]; Regimen 3, 0.75% CO2 on-off, 28 days after hatching, control 23%): 17% | % of birds scoring 0 (Woody Breast score) ([2]; Regimen 3, 0.75% CO2 on-off, 28 days after hatching, control 73%): 82% | incidence of WB compared to control birds ([2]; Regimen 3, 7,500 ppm (0.75%) CO2 on-off on alternate 24 h periods till day 18, 28 days after hatching): significantly reduced | WB scores compared to control ([2]; constant 4,000 ppm (0.4%) CO2 for 18 days, 28 days after hatching): higher | % of birds scoring 2 (Woody Breast score) ([2]; constant 4,000 ppm (0.4%) CO2 for 18 days, 28 days after hatching, control 1%): 9% | average final weight at 28 days, higher than control by [3, 5]: approximately 5% | increase of average weight just after hatch vs control [3, 5]: approximately 5% | average weight at hatch, lower than control by ([3]; Regimen 2, 1% CO2 ramp up): approximately 6.5% | weight at 28 days compared to control birds ([3]; Regimen 2, 1% CO2 ramp up): slightly heavier | average weight at hatch, lower than control by ([3]; Regimen 3, 0.75% CO2 on-off): approximately 1.5% | weight at 28 days, heavier than control birds by ([3]; Regimen 3, 0.75% CO2 on-off): 11% | percent of fertile eggs that hatched at the end of 21 days of incubation ([4]; Regimen 1, constant 10,000 ppm (1%) CO2 for 18 days, control 88.1%): 93.5% | percent of fertile eggs that hatched at the end of 21 days of incubation ([4]; Regimen 2, 1% CO2 ramp up, control 91%): 94.1% | percent of fertile eggs that hatched at the end of 21 days of incubation ([4]; Regimen 3, 0.75% CO2 on-off, control 88.7%): 96% | percent of fertile eggs that hatched at the end of 21 days of incubation ([4]; constant 4,000 ppm (0.4%) CO2 for 18 days, control 88.1%): 95.6%
